{
  "source": "paper PMC6218659",
  "about": "“Structures of DPAGT1 Explain Glycosylation Disease Mechanisms and Advance TB Antibiotic Design” (Cell, 2018)",
  "key": {"[1]": {"test_system": "B. cereus ATCC11778", "experiment": "Micro-broth dilution and drop plate antimicrobial susceptibility test", "type": "cell-based, Bacillus cereus", "details": "for Relative Therapeutic Index (RTI), B. cereus NRRL 11778: minimal lethal dose / MIC, 800 μg mL-1 used for >400", "description": "(§1) In a sterile 96-well plate, serial dilutions were made with the test substance to final volume of 50 μl. Inoculum was then prepared in Mueller-Hinton broth to 0.5 McFarland and diluted before adding 50 μl to the well to make ∼1x10^5 CFU/ml. The culture plate was incubated at 35 °C for 20-24 hrs. A positive growth control and sterility wells were also prepared along with the culture wells. Absorbance at OD600 was taken using BMG Labtech SPECTROstar Omega spectrophotometer. MIC is determined by the lowest concentration without growth. IC50 is determined from plotting a dose-response curve, see Data Analysis below. To determine the MBC, using a multi-channel pipette, 1 μl of culture broth was taken from the same 96-well microdilution growth plate and carefully inoculated on surface of MH agar plate. The plate is then incubated for additional 20 hrs. at 35 °C. The MBC value is the lowest concentration without observed growth on the agar."}, "[2]": {"test_system": "B. subtilis EC1524", "experiment": "Micro-broth dilution and drop plate antimicrobial susceptibility test", "type": "cell-based, Bacillus subtilis", "details": "for Relative Therapeutic Index (RTI), B. subtilis EC1524: minimal lethal dose / MIC, 800 μg mL-1 used for >400", "description": "as §1"}, "[3]": {"test_system": "Mtb H37Rv ATCC27294", "experiment": "Minimum inhibitory concentrations testing against Mtb", "type": "cell-based, Mycobacterium tuberculosis", "details": "for MIC: Mycobacterium tuberculosis, 168 h"}, "[4]": {"test_system": "HepG2 cells", "experiment": "Cell proliferation assay (MTS)", "type": "cell-based, human", "details": "for LD50 values, HepG2: MTS cell proliferation assay, 24 hrs, highest concentration 400 µg mL-1; for Minimal Lethal Dose, HepG2: serial 2-fold dilutions (Table S6)"}, "[5]": {"test_system": "HEK293 cells", "experiment": "Cell proliferation assay (MTS)", "type": "cell-based, human", "details": "for LD50 values, HEK293: MTS cell proliferation assay, 24 hrs, highest concentration 400 µg mL-1; for Minimal Lethal Dose, HEK 293: serial 2-fold dilutions (Table S6)"}, "[6]": {"test_system": "Raji cells", "experiment": "Cell proliferation assay (MTS)", "type": "cell-based, human", "details": "24 hrs"}, "[7]": {"test_system": "Mtb H37Rv ATCC27294", "experiment": "Macromolecular incorporation assay (radiolabeled glucosamine)", "details": "within 48 h, 10x MIC"}, "[8]": {"test_system": "Mtb-infected mice", "experiment": "Mouse infection, antitubercular activity"}, "[9]": {"experiment": "in vivo", "set-up": "species or system C57BL/6 mice", "details": "ip; for concentration at 0.5 h / concentration at 1 h / concentration at 2 h / concentration at 4 h / concentration at 6 h / concentration at 24 h: female, C57BL/6, mouse, 30 mg/kg", "description": "Test compound was dosed to sixteen female C57BL/6 mice by intraperitoneal injection in a volume of 0.6 ml. To reconstitute TUN-8,8 for intraperitoneal injections, compound (1 mg) was dissolved in 0.1 ml ethanol and subsequently diluted with 0.9 ml 1% Tween 80 in Dulbecco’s PBS. The mixture was warmed to 37 °C, vortexed and sonicated followed by sterile filtration through a 0.2 μm filter. Blood samples were taken from the tail vein of the mice at pre-determined time intervals post-dose, and serum collected after 4 h on ice. 30 μl serum samples were prepared with 30 μl internal standard and 20 μl of water or spiked standard along with 240 μl of ACN/MeOH mix (3:1) to precipitate proteins. Samples were centrifuged 13 krpm for 5 minutes and 2 μl injected into LC-MS/MS system. Calibration standard was prepared 1 mg of TUN-8,8 to 1 ml DMSO and successively diluted by a factor of 3. TUN-9,9 IS solution was prepared to 200 μg/ml in DMSO.\nLC-MS/MS was performed on an Agilent 1290 Infinity HPLC coupled to an Agilent 6460C triple quadrupole mass selective detector with electrospray ionization in positive mode. TUN-8,8 and TUN-9,9 (as an internal standard) were detected using their M+H precursors ions with 514.1 and 528.2 Da/z product ions produced in a collision cell using collision energy 12 V. Capillary voltage was 3000 V and ESI used jet stream technology with sheath voltage 2000 V. The column was an Agilent C18 Poroshell 120 2.7 μm with dimensions 2.1 x 50 mm at 40 °C. Mobile phase was water (A) and acetonitrile (B) each with 0.1% (v/v) formic acid. […] Water for LC-MS/MS was purified by a Barnstead Diamond system to 18.2 MΩ-cm resistivity. Acetonitrile (ACN) and Methanol were HPLC grade from Fisher (Fairlawn NJ, USA) and formic acid was supplied from EMD Millipore Corp (Darmstadt, Germany). DMSO was ACS grade manufactured by Amresco LLC in Solon Ohio USA."}, "[10]": {"experiment": "Human plasma protein binding assay", "type": "in vitro ADME", "details": "read-out: human plasma protein binding, bound (converted)"}, "[11]": {"experiment": "Tolerance testing in uninfected mice", "type": "in vivo", "details": "uninfected mice (n=5), 10 days, daily 30 mg.kg^-1 ip"}, "[12]": {"details": "Bacillus cereus, ATCC 11778 / NRRL11778, read-out: Minimal Inhibitory Concentration, B. cereus NRRL 11778"}, "[13]": {"details": "Bacillus subtilis, EC1524, read-out: Minimal Inhibitory Concentration, B. subtilis EC1524"}, "[14]": {"details": "two weeks, 10 mg.kg^-1 ip, vs vehicle control"}},
  "note": "Counter-ions that a name gives are not always drawn. Like-named read-outs stand apart in the source and are kept apart here.",
  "data": [
    {"smiles": "N[C@H]1[C@H](O[C@H]2O[C@H](CO)[C@@H](O)[C@H](O)[C@H]2N)O[C@H](C[C@@H](O)[C@H]2O[C@@H](n3ccc(=O)[nH]c3=O)[C@H](O)[C@@H]2O)[C@H](O)[C@@H]1O", "note": "[TUN, α-D-glucosamine-(1”-11')-tunicamyl uracil dihydrochloride]", "values": [
      {"measurement": "MIC", "setting": "[1]; [12]", "result": 100, "unit": "µg/mL"},
      {"measurement": "Relative Therapeutic Index (RTI), B. cereus NRRL 11778", "setting": "[1]", "result": 8},
      {"measurement": "MIC", "setting": "[2]; [13]", "result": 100, "unit": "µg/mL"},
      {"measurement": "Relative Therapeutic Index (RTI), B. subtilis EC1524", "setting": "[2]", "result": 8},
      {"measurement": "MIC", "setting": "[3]; 1-week in 7H9/ADC/Tw (Table S6), read-out: Minimal Inhibitory Concentration, Mtb H37RV a", "result": "> 60", "unit": "µg/mL"},
      {"measurement": "MIC", "setting": "[3]; 1-week in GAST/Fe (Table S6), read-out: Minimal Inhibitory Concentration, Mtb H37RV b", "result": "> 60", "unit": "µg/mL"},
      {"measurement": "MIC", "setting": "[3]; Mtb H37Rv, minimal growth medium, read-out: 1-week MIC in GAST/Fe", "result": "> 60", "unit": "µg/mL"},
      {"measurement": "MIC", "setting": "[3]; Mtb H37Rv, rich 7H9-based growth medium, read-out: 1-week MIC in 7H9/ADC/Tw", "result": "> 60", "unit": "µg/mL"},
      {"measurement": "LD50 values, HepG2", "setting": "[4]", "result": "N/A (N/A = not available. No or low cytotoxicity observed at highest, saturating concentration tested (400 µg mL-1))"},
      {"measurement": "Minimal Lethal Dose, HepG2", "setting": "[4]", "result": "> 400", "unit": "µg/mL"},
      {"measurement": "LD50 values, HEK293", "setting": "[5]", "result": "N/A (N/A = not available. No or low cytotoxicity observed at highest, saturating concentration tested (400 µg mL-1))"},
      {"measurement": "Minimal Lethal Dose, HEK 293", "setting": "[5]", "result": "> 400", "unit": "µg/mL"},
      {"measurement": "LD50 values, Raji", "setting": "[6]", "result": 698.3, "unit": "µg/mL"}
    ]},
    {"smiles": "CCCCCCCC(=O)N[C@H]1[C@H](O[C@H]2O[C@H](CO)[C@@H](O)[C@H](O)[C@H]2NC(=O)CCCCCCC)O[C@H](C[C@@H](O)[C@H]2O[C@@H](n3ccc(=O)[nH]c3=O)[C@H](O)[C@@H]2O)[C@H](O)[C@@H]1O", "note": "[TUN-8,8, Di-N-octanoyl-tunicamycin]", "values": [
      {"measurement": "glucosamine incorporation", "setting": "[7]", "result": "reduced"},
      {"measurement": "IC50", "setting": "[1]; Bacillus cereus, ATCC11778", "result": 0.78, "unit": "µg/mL"},
      {"measurement": "MBC", "setting": "[1]; Bacillus cereus, ATCC11778", "result": "> 50", "unit": "µg/mL"},
      {"measurement": "MIC", "setting": "[1]; Bacillus cereus, ATCC11778", "result": "5.2 ± 1.8", "unit": "µg/mL"},
      {"measurement": "MIC", "setting": "[1]; [12]", "result": 6.25, "unit": "µg/mL"},
      {"measurement": "Relative Therapeutic Index (RTI), B. cereus NRRL 11778", "setting": "[1]", "result": 128},
      {"measurement": "IC50", "setting": "[2]; Bacillus subtilis, EC1524", "result": 0.2, "unit": "µg/mL"},
      {"measurement": "MBC", "setting": "[2]; Bacillus subtilis, EC1524", "result": "> 0.78", "unit": "µg/mL"},
      {"measurement": "MIC", "setting": "[2]; Bacillus subtilis, EC1524", "result": "0.65 ± 0.22", "unit": "µg/mL"},
      {"measurement": "MIC", "setting": "[2]; [13]", "result": 0.78, "unit": "µg/mL"},
      {"measurement": "Relative Therapeutic Index (RTI), B. subtilis EC1524", "setting": "[2]", "result": 1026},
      {"measurement": "Relative Therapeutic Index (RTI), Mtb H37RV a", "setting": "[3]", "result": 1140},
      {"measurement": "MIC", "setting": "[3]; read-out: 1-week MIC in 7H9/ADC/Tw", "result": "0.7 ± 3.3", "unit": "µg/mL"},
      {"measurement": "MIC", "setting": "[3]; read-out: 1-week MIC in GAST/Fe", "result": "0.14 ± 0.1", "unit": "µg/mL"},
      {"measurement": "MIC", "setting": "[3]; read-out: Minimal Inhibitory Concentration, Mtb H37RV a", "result": 0.7, "unit": "µg/mL"},
      {"measurement": "MIC", "setting": "[3]; read-out: Minimal Inhibitory Concentration, Mtb H37RV b", "result": 0.14, "unit": "µg/mL"},
      {"measurement": "LD50 values, HepG2", "setting": "[4]", "result": "N/A (N/A = not available. No or low cytotoxicity observed at highest, saturating concentration tested (400 µg mL-1))"},
      {"measurement": "Minimal Lethal Dose, HepG2", "setting": "[4]", "result": "> 400", "unit": "µg/mL"},
      {"measurement": "LD50 values, HEK293", "setting": "[5]", "result": "N/A (N/A = not available. No or low cytotoxicity observed at highest, saturating concentration tested (400 µg mL-1))"},
      {"measurement": "Minimal Lethal Dose, HEK 293", "setting": "[5]", "result": "> 400", "unit": "µg/mL"},
      {"measurement": "LD50 values, Raji", "setting": "[6]", "result": "211.05 ± 125.94", "unit": "µg/mL"},
      {"measurement": "toxicity in infected mice", "setting": "[8]; precluded testing beyond 2 weeks", "result": "clinical signs of toxicity"},
      {"measurement": "reduction in bacterial burdens in lungs", "setting": "[8]; [14]", "result": "~10", "unit": "fold"},
      {"measurement": "reduction in bacterial burdens in spleens", "setting": "[8]; [14]", "result": "~5", "unit": "fold"},
      {"measurement": "concentration at 0.5 h", "setting": "[9]; first series", "result": "42.7 ± 28.3", "unit": "µM"},
      {"measurement": "concentration at 1 h", "setting": "[9]; first series", "result": "34.6 ± 7.4", "unit": "µM"},
      {"measurement": "concentration at 2 h", "setting": "[9]; first series", "result": "23.7 ± 9.25", "unit": "µM"},
      {"measurement": "concentration at 4 h", "setting": "[9]; first series", "result": "1.32 ± 1.09", "unit": "µM"},
      {"measurement": "concentration at 6 h", "setting": "[9]; first series", "result": "0.21 ± 0.12", "unit": "µM"},
      {"measurement": "concentration at 24 h", "setting": "[9]; first series", "result": "0.06 ± 0.08", "unit": "µM"},
      {"measurement": "concentration at 0.5 h", "setting": "[9]; second series", "result": "52.1 ± 34.5", "unit": "µM"},
      {"measurement": "concentration at 1 h", "setting": "[9]; second series", "result": "42.3 ± 9.04", "unit": "µM"},
      {"measurement": "concentration at 2 h", "setting": "[9]; second series", "result": "28.9 ± 11.3", "unit": "µM"},
      {"measurement": "concentration at 4 h", "setting": "[9]; second series", "result": "1.61 ± 1.33", "unit": "µM"},
      {"measurement": "concentration at 6 h", "setting": "[9]; second series", "result": "0.26 ± 0.15", "unit": "µM"},
      {"measurement": "concentration at 24 h", "setting": "[9]; second series", "result": "0.07 ± 0.1", "unit": "µM"},
      {"measurement": "bioavailability", "setting": "[9]; mouse", "result": "good bioavailability"},
      {"measurement": "fraction unbound", "setting": "[10]", "result": 0.018},
      {"measurement": "tolerance, signs of toxicity", "setting": "[11]", "result": "no signs of toxicity"}
    ]}
  ]
}
